Test results: patent US20150105252A1, “SUBSTITUTED PYRAZOLES AS HERBICIDES” (E I DU PONT DE NEMOURS AND COMPANY, priority 2013, published 2015)

Key:
bromegrass, downy = experiment: Test C preemergence; format: in vivo, Bromus tectorum; details: for Plant response rating (scale of 0 to 100), Bromegrass, Downy: Preemergence, 250 g ai/ha; for Bromegrass, Downy plant response rating / Plant response rating, Bromegrass, Downy: preemergence; for Plant response rating, Bromegrass, Downy: 62 g ai/ha, scale 0 to 100, 0 = no effect, 100 = complete control
Source text: (§1) Seeds of plant species selected from blackgrass (Alopecurus myosuroides), ryegrass, Italian (Italian ryegrass, Lolium multiflorum), wheat (winter wheat, Triticum aestivum), galium (catchweed bedstraw, Galium aparine), corn (Zea mays), crabgrass, large (large crabgrass, Digitaria sanguinalis), foxtail, giant (giant foxtail, Setaria faberii), johnsongrass (Sorghum halepense), lambsquarters (Chenopodium album), morningglory (Ipomoea coccinea), nutsedge, yellow (yellow nutsedge, Cyperus esculentus), pigweed (redroot pigweed, Amaranthus retroflexus), ragweed (common ragweed, Ambrosia elation), soybean (Glycine max), barnyardgrass (Echinochloa crus-galli), oilseed rape (Brassica napus), waterhemp (common waterhemp, Amaranthus rudis), oat, wild (wild oat, Avena fatua), kochia (Kochia scoparia), Surinam grass (Brachiaria decumbens), foxtail, green (green foxtail, Setaria viridis), goosegrass (Eleusine indica), bromegrass, downy (downy bromegrass, Bromus tectorum), nightshade (eastern black nightshade, Solanum ptycanthum), cocklebur (common cocklebur, Xanthium strumarium), cupgrass, woolly (woolly cupgrass, Eriochloa villosa), bermudagrass (Cynodon dactylon), sunflower, (common oilseed sunflower, Helianthus annuus), Russian thistle (Salsola kali), and velvetleaf (Abutilon theophrasti) were planted into a blend of loam soil and sand and treated preemergence with test chemicals formulated in a non-phytotoxic solvent mixture which included a surfactant.
(§2) At the same time, plants selected from these crop and weed species and also chickweed (common chickweed, Stellaria media), canarygrass (littleseed canarygrass, Phalaris minor), and deadnettle (henbit deadnettle, Lamium amplexicaule), were planted in pots containing Redi-Earth® planting medium (Scotts Company, 14111 Scottslawn Road, Marysville, Ohio 43041) comprising spaghnum peat moss, vermiculite, wetting agent and starter nutrients and treated with postemergence applications of test chemicals formulated in the same manner. Plants ranged in height from 2 to 18 cm (1- to 4-leaf stage) for postemergence treatments. Treated plants and controls were maintained in a greenhouse for 13 to 15 days, after which time all species were compared to controls and visually evaluated. Plant response ratings, summarized in Table C, are based on a scale of 0 to 100 where 0 is no effect and 100 is complete control. A dash (-) response means no test result.

bermudagrass = experiment: Test C preemergence; format: in vivo, Cynodon dactylon; details: for Plant response rating (scale of 0 to 100), Bermudagrass: Preemergence, 250 g ai/ha; for Bermudagrass plant response rating / Plant response rating, Bermudagrass: preemergence; for Plant response rating, Bermudagrass: 62 g ai/ha, scale 0 to 100, 0 = no effect, 100 = complete control
Source text: as §1, §2

oat, wild = experiment: Test C preemergence; format: in vivo, Avena fatua; details: for Plant response rating (scale of 0 to 100), Oat, Wild: Preemergence, 250 g ai/ha; for Oat, Wild plant response rating / Plant response rating, Oat, Wild: preemergence; for Plant response rating, Oat, Wild: 62 g ai/ha, scale 0 to 100, 0 = no effect, 100 = complete control
Source text: as §1, §2

cocklebur = experiment: Test C postemergence; format: in vivo, Xanthium strumarium; details: for Cocklebur plant response rating: scale 0 to 100
Source text: as §1, §2

barley = experiment: Test C postemergence; format: in vivo, Hordeum vulgare; details: 250 g ai/ha, scale 0 to 100 (0 no effect, 100 complete control)
[1] = 31 g ai/ha, scale 0 to 100 (0 no effect, 100 complete control), 13 to 15 days
[2] = 125 g ai/ha, scale 0 to 100, 0 is no effect, 100 is complete control
[3] = postemergence, 250 g ai/ha, scale 0 to 100 (0 no effect, 100 complete control)
[4] = postemergence, 125 g ai/ha, scale 0 to 100, 0 no effect, 100 complete control

SMILES	Plant response rating (scale of 0 to 100), Bromegrass, Downy (bromegrass, downy)	Bromegrass, Downy plant response rating (bromegrass, downy; [1])	Plant response rating, Bromegrass, Downy (bromegrass, downy; 13 to 15 days)	Bromegrass, Downy plant response rating (bromegrass, downy; [2])	Plant response rating (scale of 0 to 100), Bermudagrass (bermudagrass)	Bermudagrass plant response rating (bermudagrass; [1])	Plant response rating, Bermudagrass (bermudagrass; 13 to 15 days)	Bermudagrass plant response rating (bermudagrass; [2])	Plant response rating (scale of 0 to 100), Oat, Wild (oat, wild)	Oat, Wild plant response rating (oat, wild; [1])	Plant response rating, Oat, Wild (oat, wild; 13 to 15 days)	Oat, Wild plant response rating (oat, wild; [2])	Cocklebur plant response rating (cocklebur; Postemergence, 31 g ai/ha)	Cocklebur plant response rating (cocklebur; postemergence, 62 g ai/ha)	Plant response rating, Cocklebur (cocklebur; [3])	Plant response rating, Cocklebur (cocklebur; [4])	Plant response rating, Barley (barley)	Plant response rating, Cocklebur (cocklebur; postemergence, 62 g ai/ha, scale 0 to 100, 0 no effect, 100 complete control)
CCONC(=O)c1cc(CC)n(Cc2cccc(OC(F)(F)F)c2)n1 [Compound 72]	90	5	45	80	100	85	98	98	85	30	60	80	0	0	15	5	10	–
CCc1cc(C(=O)NOC(C)C)nn1Cc1cccc(OC(F)(F)F)c1 [Compound 70]	80	20	35	40	100	98	98	100	65	5	10	50	10	–	45	20	25	15
